According to article PMC10878344 (Journal of Enzyme Inhibition and Medicinal Chemistry, 2024):
“Also recorded” adds a separate entry of the source.

Experiments:
eqBuChE [1] = target: T1, eqBuChE (Equus caballus, UniProt P81908); test: eqBuChE inhibition, modified Ellman's method; type: biochemical, equine
eeAChE = eeAChE (Electrophorus electricus, UniProt O42275); test: eeAChE inhibition, modified Ellman's method; type: biochemical, electric eel
huBuChE = huBuChE (Homo sapiens, UniProt P06276); test: huBuChE inhibition, modified Ellman's method; type: biochemical
[2] = PAMPA-BBB in vitro blood-brain barrier permeation assay; conditions: for Papp at 10 h, 25 μg/mL: pH 7.4; for CNS (±): PAMPA-BBB classification from Pe
[3] = tested on: LPS-induced NO production of mouse microglia cells (BV-2); test: LPS-induced NO production in BV-2 microglia; type: cell-based; conditions: for NO production: 10 μM compound, LPS-induced BV-2 cells; for inhibition at 10 µM: Mus musculus, BV-2, read-out: NO inhibition
Acute toxicity test = conditions: both, ICR, mouse, in vivo, po, 1000 mg/kg
ICR mice = test: Acute toxicity test; conditions: ICR mice
[4] = tested on: scopolamine-induced cognitive impairment mouse model; test: Morris water maze test in scopolamine-induced cognitive impairment mouse model; type: in vivo, C57BL/6J mice; conditions: scopolamine 5 mg/kg i.p.; for escape latency to the platform: fifth day of training trials; for number of crossing the platform: last day without platform
eqBuChE [5] = target: T1, eqBuChE; test: Kinetics of BuChE inhibition; type: biochemical, equine
[6] = PAMPA-BBB reported values; ref [35],[36]; cited from earlier work
BV-2 cells = test: BV-2 cell viability; conditions: 10 μM, MTT, 24 h

Chain of eeAChE (O42275 24-633): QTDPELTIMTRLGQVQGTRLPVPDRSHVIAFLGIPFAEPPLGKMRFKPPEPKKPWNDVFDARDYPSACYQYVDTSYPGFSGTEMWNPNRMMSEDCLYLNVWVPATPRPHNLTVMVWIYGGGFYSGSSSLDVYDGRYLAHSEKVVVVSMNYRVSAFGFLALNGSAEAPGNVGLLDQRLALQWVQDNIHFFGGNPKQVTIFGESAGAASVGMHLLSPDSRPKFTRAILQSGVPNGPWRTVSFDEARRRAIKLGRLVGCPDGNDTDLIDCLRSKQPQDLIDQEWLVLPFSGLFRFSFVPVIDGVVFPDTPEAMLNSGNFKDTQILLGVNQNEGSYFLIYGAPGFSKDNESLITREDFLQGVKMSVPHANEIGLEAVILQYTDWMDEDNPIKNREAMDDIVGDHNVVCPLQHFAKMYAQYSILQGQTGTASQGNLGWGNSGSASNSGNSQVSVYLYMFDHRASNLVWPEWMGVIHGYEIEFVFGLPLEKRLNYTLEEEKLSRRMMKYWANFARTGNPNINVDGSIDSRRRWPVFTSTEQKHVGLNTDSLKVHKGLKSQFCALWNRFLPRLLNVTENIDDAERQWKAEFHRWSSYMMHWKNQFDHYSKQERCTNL
T1 sequence (P81908 whole entry): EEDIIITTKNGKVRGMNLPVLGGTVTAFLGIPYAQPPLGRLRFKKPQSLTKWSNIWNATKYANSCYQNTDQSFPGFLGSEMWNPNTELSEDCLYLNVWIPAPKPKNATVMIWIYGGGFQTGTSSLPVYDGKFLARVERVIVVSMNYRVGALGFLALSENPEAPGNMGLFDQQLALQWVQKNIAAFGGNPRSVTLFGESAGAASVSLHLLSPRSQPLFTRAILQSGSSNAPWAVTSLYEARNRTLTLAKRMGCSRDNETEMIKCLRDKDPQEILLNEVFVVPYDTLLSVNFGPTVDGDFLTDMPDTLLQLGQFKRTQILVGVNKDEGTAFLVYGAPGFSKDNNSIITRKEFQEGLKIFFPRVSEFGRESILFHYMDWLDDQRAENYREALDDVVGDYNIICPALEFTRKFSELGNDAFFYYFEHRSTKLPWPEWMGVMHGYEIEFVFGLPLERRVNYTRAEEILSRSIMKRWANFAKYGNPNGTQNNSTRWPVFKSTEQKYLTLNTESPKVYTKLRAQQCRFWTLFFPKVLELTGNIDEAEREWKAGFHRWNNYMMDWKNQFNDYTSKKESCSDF
Chain of huBuChE (P06276 29-602): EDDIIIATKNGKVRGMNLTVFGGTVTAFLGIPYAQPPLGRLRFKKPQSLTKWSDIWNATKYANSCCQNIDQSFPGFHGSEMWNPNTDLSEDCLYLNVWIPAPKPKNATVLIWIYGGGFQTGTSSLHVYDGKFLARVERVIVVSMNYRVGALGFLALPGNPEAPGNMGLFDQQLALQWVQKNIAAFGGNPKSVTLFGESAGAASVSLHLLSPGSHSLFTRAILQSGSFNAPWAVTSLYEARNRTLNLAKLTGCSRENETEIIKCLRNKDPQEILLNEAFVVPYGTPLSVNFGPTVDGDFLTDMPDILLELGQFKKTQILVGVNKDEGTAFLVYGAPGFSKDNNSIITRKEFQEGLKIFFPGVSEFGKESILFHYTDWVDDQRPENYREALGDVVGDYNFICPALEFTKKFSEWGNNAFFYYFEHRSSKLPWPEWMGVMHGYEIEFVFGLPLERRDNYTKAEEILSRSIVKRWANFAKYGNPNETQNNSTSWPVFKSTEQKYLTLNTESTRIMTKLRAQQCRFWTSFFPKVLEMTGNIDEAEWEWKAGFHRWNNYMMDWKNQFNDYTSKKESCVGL

Structure (SMILES)	IC50 (eqBuChE [1]) [nM]	IC50 (eeAChE) [nM]	IC50 (huBuChE) [nM]	NO production [3] [%]	other results
O=C(Oc1cccc(/C=C/c2occc(=O)c2OCc2ccccc2)c1)N1CCCCC1 [Compound 7l, (E)-3–(2-(3-(benzyloxy)-4-oxo-4H-pyran-2-yl)vinyl)phenyl piperidine-1-carboxylate]	8.1 ± 2.75	> 20000	6.93 ± 1.57	–	–
COc1c(/C=C/c2cccc(OC(=O)N3CCCCC3)c2)oc(C)cc1=O [Compound 7p, (E)-3-(2-(3-methoxy-6-methyl-4-oxo-4H-pyran-2-yl)vinyl)phenyl piperidine-1-carboxylate]	4.68 ± 1.39	> 20000	9.12 ± 0.57	71.18	BBB permeability in the PAMPA-BBB assay (in words) ([2]; PAMPA): high BBB permeability; Papp at 10 h, 25 μg/mL ([2]; PAMPA): 5.7 ± 0.43 ×10⁻⁶ cm/s; CNS (±) [2]: CNS + (CNS +: (high BBB permeability), Pe (×10^−6 cm/s) > 3.95); inhibition at 10 µM [3]: 28.8%; fold increase in inhibiting eqBuChE (eqBuChE [1]; relative to compound 7g): 3 fold; LD50 at 14 d (Acute toxicity test): > 1000 mg/kg; abnormal behaviours or deaths after administration (ICR mice; 1000 mg/kg intragastric single dose, 14 d): no abnormal behaviours or deaths; pathological changes in heart, liver, spleen and brain (HE staining) (ICR mice; 1000 mg/kg, after 14 d, compared with control group): did not observe obvious pathological changes; fold increase in inhibiting huBuChE (huBuChE; relative to compound 7g): 4 fold; escape latency to the platform ([4]; 1 mg/kg oral once daily): 30.24 s; number of crossing the platform ([4]; 1 mg/kg oral once daily): 3.3 times; escape latency to the platform ([4]; 5 mg/kg oral once daily): 29.12 s; number of crossing the platform ([4]; 5 mg/kg oral once daily): 3.5 times; Ki (eqBuChE [5]): 3.15 nM; Kib (inhibition constant for the enzyme-substrate complex) (eqBuChE [5]; Cornish-Bowden plot): 3.84 nM; type of BuChE inhibition (eqBuChE [5]; Dixon and Cornish-Bowden plots): mix-type; also recorded: mixed-type inhibition
CN1C(C(=O)Nc2ccccn2)=C(O)c2sccc2S1(=O)=O [Tenoxicam]	–	–	–	–	Papp at 10 h, 25 μg/mL ([2]; PAMPA): 0.35 ± 0.16 ×10⁻⁶ cm/s; CNS (±) [2]: CNS - (CNS -: (low BBB permeability), Pe (×10^−6 cm/s) < 2.03); Pe(ref.) [6]: 1e-07 cm/s
Cn1c(=O)c2[nH]cnc2n(C)c1=O [Theophylline]	–	–	–	–	Pe(ref.) [6]: 0.12 ± 0.01 ×10^−6 cm/s
Cc1cc(=O)c(OCc2ccccc2)c(/C=C/c2cccc(OC(=O)N3CCCC3)c2)o1 [Compound 7f, (E)-3–(2-(3-(benzyloxy)-6-methyl-4-oxo-4H-pyran-2-yl)vinyl)phenyl pyrrolidine-1-carboxylate]	31.4 ± 5.97	> 20000	156 ± 36	–	–
Cc1cc(=O)c(OCc2ccccc2)c(/C=C/c2cccc(OC(=O)N3CCC(Cc4ccccc4)CC3)c2)o1 [Compound 7i, (E)-3–(2-(3-(benzyloxy)-6-methyl-4-oxo-4H-pyran-2-yl)vinyl)phenyl 4-benzylpiperidine-1-carboxylate]	75.2 ± 11.9	> 20000	374 ± 6.45	–	–
O=C(Oc1cccc(/C=C/c2oc(CO)cc(=O)c2OCc2ccccc2)c1)N1CCCCC1 [Compound 7m, (E)-3–(2-(3-(benzyloxy)-6-(hydroxymethyl)-4-oxo-4H-pyran-2-yl)vinyl)phenyl piperidine-1-carboxylate]	5.22 ± 1.72	> 20000	16.5 ± 5.44	76.97	–
CCn1cc(C(=O)O)c(=O)c2cc(F)c(N3CCNCC3)cc21 [Norfloxacin]	–	–	–	–	Papp at 10 h, 25 μg/mL ([2]; PAMPA): 0.18 ± 0.03 ×10⁻⁶ cm/s; CNS (±) [2]: CNS - (CNS -: (low BBB permeability), Pe (×10^−6 cm/s) < 2.03); Pe(ref.) [6]: 1e-07 cm/s
C[C@]12CCC(=O)C=C1CC[C@@H]1[C@@H]2[C@@H](O)C[C@@]2(C)[C@H]1CC[C@]2(O)C(=O)CO [hydrocortisone, Hydrocortisone, reference compound]	–	–	–	70.25	cell viability compared to the control group (BV-2 cells): no significant differences
CCN(C)C(=O)Oc1cccc(/C=C/c2oc(C)cc(=O)c2OCc2ccccc2)c1 [Compound 7b, (E)-3–(2-(3-(benzyloxy)-6-methyl-4-oxo-4H-pyran-2-yl)vinyl)phenyl ethyl(methyl)carbamate]	157 ± 13.3	> 20000	631 ± 155	–	–
Cc1cc(=O)c(OCc2ccccc2)c(/C=C/c2cccc(OC(=O)N3CCN(Cc4ccccc4)CC3)c2)o1 [Compound 7j, (E)-3–(2-(3-(benzyloxy)-6-methyl-4-oxo-4H-pyran-2-yl)vinyl)phenyl 4-benzylpiperazine-1-carboxylate]	31.8 ± 6.92	> 20000	733 ± 59.8	–	–
Cc1cc(=O)c(OCc2ccccc2)c(-c2ccc(-c3cccc(OC(=O)N4CCCCC4)c3)cc2)o1 [Compound 7r, 4′-(3-(Benzyloxy)-6-methyl-4-oxo-4H-pyran-2-yl)-[1,1′-biphenyl]-3-yl piperidine-1-carboxylate]	94.3 ± 20.9	> 20000	651 ± 157	–	–
Cc1cc(=O)c(OCc2ccccc2)c(/C=C/c2cccc(OCC(=O)N3CCCCC3)c2)o1 [Compound 7k, (E)-3-(benzyloxy)-6-methyl-2–(3–(2-oxo-2-(piperidin-1-yl)ethoxy)styryl)-4H-pyran-4-one]	1430 ± 131	> 20000	486 ± 46.2	64.59	inhibition at 10 µM [3]: 35.4%
CCN(CC)C(=O)Oc1cccc(/C=C/c2oc(C)cc(=O)c2OCc2ccccc2)c1 [Compound 7c, (E)-3–(2-(3-(benzyloxy)-6-methyl-4-oxo-4H-pyran-2-yl)vinyl)phenyl diethylcarbamate]	652 ± 44.5	> 20000	> 10000	–	–
Cc1cc(=O)c(OCc2ccc(-c3ccccc3)cc2)c(/C=C/c2cccc(OC(=O)N3CCCCC3)c2)o1 [Compound 7o, (E)-3–(2-(3-([1,1′-biphenyl]-4-ylmethoxy)-6-methyl-4-oxo-4H-pyran-2-yl)vinyl)phenyl piperidine-1-carboxylate]	19.2 ± 1.91	> 20000	37.9 ± 5.37	–	–
Cc1cc(=O)c(OCc2ccc3ccccc3c2)c(/C=C/c2cccc(OC(=O)N3CCCCC3)c2)o1 [Compound 7n, (E)-3–(2-(6-methyl-3-(naphthalen-2-ylmethoxy)-4-oxo-4H-pyran-2-yl)vinyl)phenyl piperidine-1-carboxylate]	18.9 ± 5.98	> 20000	39.4 ± 4.2	–	–
Cc1cc(=O)c(OCc2ccccc2)c(/C=C/c2cccc(OC(=O)N3CCOCC3)c2)o1 [Compound 7h, (E)-3–(2-(3-(benzyloxy)-6-methyl-4-oxo-4H-pyran-2-yl)vinyl)phenyl morpholine-4-carboxylate]	72.6 ± 9.39	> 20000	> 10000	–	–
CCN(C)C(=O)Oc1cccc([C@H](C)N(C)C)c1 [Rivastigmine, reference compound]	–	–	–	–	escape latency to the platform ([4]; 1 mg/kg oral once daily): 31.15 s; number of crossing the platform ([4]; 1 mg/kg oral once daily): 3.0 times
Cc1cc(=O)c(OCc2ccccc2)c(/C=C/c2cccc(OC(=O)N(C(C)C)C(C)C)c2)o1 [Compound 7d, (E)-3–(2-(3-(benzyloxy)-6-methyl-4-oxo-4H-pyran-2-yl)vinyl)phenyl diisopropylcarbamate]	8530 ± 314	> 20000	> 10000	80.01	–
Cc1cc(=O)c(OCc2ccccc2)c(/C=C/c2cccc(OC(=O)N(C)C)c2)o1 [Compound 7a, (E)-3–(2-(3-(benzyloxy)-6-methyl-4-oxo-4H-pyran-2-yl)vinyl)phenyl dimethylcarbamate]	24.6 ± 6.66	> 20000	99.4 ± 20.6	90.31	–
Cc1cc(=O)c(OCc2ccccc2)c(-c2ccc3ccc(OC(=O)N4CCCCC4)cc3c2)o1 [Compound 7q, 7–(3-(Benzyloxy)-6-methyl-4-oxo-4H-pyran-2-yl)naphthalen-2-yl piperidine-1-carboxylate]	41.7 ± 11.3	> 20000	230 ± 29.9	–	–
Cc1cc(=O)c(OCc2ccccc2)c(/C=C/c2cccc(OC(=O)N(c3ccccc3)c3ccccc3)c2)o1 [Compound 7e, (E)-3–(2-(3-(benzyloxy)-6-methyl-4-oxo-4H-pyran-2-yl)vinyl)phenyl diphenylcarbamate]	> 10000	> 20000	> 10000	106.16	–
Cc1cc(=O)c(OCc2ccccc2)c(/C=C/c2cccc(OC(=O)N3CCCCC3)c2)o1 [Compound 7g, (E)-3–(2-(3-(benzyloxy)-6-methyl-4-oxo-4H-pyran-2-yl)vinyl)phenyl piperidine-1-carboxylate]	15.3 ± 0.75	> 20000	38.7 ± 2.08	90.09	–
Cc1cc(=O)c(OCc2ccccc2)c(CCc2cccc(OC(=O)N3CCCCC3)c2)o1 [Compound 7s, 3–(2-(3-(Benzyloxy)-6-methyl-4-oxo-4H-pyran-2-yl)ethyl)phenyl piperidine-1-carboxylate]	12.3 ± 3.12	> 20000	11 ± 1.7	77.77	–
CN1C(C(=O)Nc2ccccn2)=C(O)c2ccccc2S1(=O)=O [Piroxicam]	–	–	–	–	Papp at 10 h, 25 μg/mL ([2]; PAMPA): 2.16 ± 0.04 ×10⁻⁶ cm/s; CNS (±) [2]: CNS +/-; Pe(ref.) [6]: 2.5e-06 cm/s
